Assay results taken from US20220168302A1, “SALTS OF A COMPOUND, CRYSTAL FORMS OF THE SALTS AND PREPARATION METHOD AND USE THEREOF” (Gan & Lee Pharmaceuticals Co., Ltd., priority 2019, published 2022).
Values after ≈ are worked out from the molar mass of the structure shown. Read-outs that look alike come from different tables or passages of the source.

Tests used:
Type in all cases: physicochemical
[1] = Solubility test in water, FaSSIF and FeSSIF (24 h, 37° C., HPLC concentration); conditions: initial feeding amount 10 mg/ml; for solubility at 24 h: 37 °C, thermodynamic from solid
Procedure: Experimental method: the solubility test was carried out in three solvents including water, fasted state simulated intestinal fluid (FaSSIF) and fed state simulated intestinal fluid (FeSSIF), to evaluate the solubilities of the salts of the present invention.
In the experiment, the sample and the solvent were mixed in a centrifuge tube (the initial feeding amount was 10 mg/ml), then the centrifuge tube was sealed and fixed on a rotating disk with a rotation speed of 25 rpm, and sampling was performed after rotating and mixing for 24 h at 37° C. The turbid sample was subjected to centrifugal separation, and the filtered supernatant was measured for HPLC concentration. If the sample solution was clear, the concentration of the obtained solution was measured.

[2] = Dynamic moisture adsorption (DVS) hygroscopicity test; conditions: for Hygroscopicity (moisture adsorption capacity): DVS, 25° C./80% RH; for Whether the crystal form has a change: XRPD before and after DVS test
Procedure: The moisture adsorption capacities of the representative salts and the free base of the above Examples and Comparative Examples were tested when the humidity reached 80% RH through a dynamic moisture adsorption (DVS) test at 25° C., so as to compare the hygroscopicities.
Experimental results: the test results are shown in Table 13, wherein, >15% means very hygroscopic, 2% to 15% means hygroscopic, 0.2% to 2% means slightly hygroscopic, and <0.2% means almost non-hygroscopic.

[3] = Solid-state stability test, one week, HPLC purity; conditions: for HPLC purity 1 week: open container; for HPLC purity, Initial purity: before storage
Procedure: Experimental method: appropriate amount of samples were respectively weighed and placed in open containers under the conditions of light illumination of 4500 lux, 25° C./60% RH and 40° C./75% RH to perform solid-state stability test evaluation for one week. One week later, the purities of the test samples were tested by HPLC to detect the change of purity. Three groups of parallel tests were set for each test condition.
High performance liquid chromatograms were collected on an Agilent 1100 HPLC.

[4] = FaSSIF, fassif, fasted state simulated intestinal fluid, read-out: Solubility in FaSSIF
[5] = FeSSIF, fessif, fed state simulated intestinal fluid, read-out: Solubility in FeSSIF
[6] = fasted state simulated intestinal fluid
[7] = fed state simulated intestinal fluid
[8] = water, water, water, read-out: Solubility in water

Compound: CC1=Nc2c(F)cc(-c3nc(Nc4ccc(C5CCN(C)CC5)cn4)ncc3F)cc2C12CCCC2.O=C(O)/C=C/C(=O)O [Fumarate crystal form A, Fumarate of 5-fluoro-4-(7′-fluoro-2′-methylspiro[cyclopentane-1,3′-indol]-5′-yl)-N-(5-(1-methylpiperidin-4-yl)pyridin-2-yl)pyrimidine-2-amine]
- solubility at 24 h [1, 4]: 7600 µg/mL
- solubility at 24 h [1, 5]: 8000 µg/mL
- Solubility in water ([1]; water): 6300 µg/mL
- Hygroscopicity (moisture adsorption capacity) [2]: 0.35%
- Whether the crystal form has a change [2]: No change
- Whether the crystal form has a change ([2]; listed as fumarate crystal form A): no change
- HPLC purity 1 week Relative to the initial purity ([3]; 25° C./60% RH): 100.0%
- HPLC purity 1 week ([3]; 25° C./60% RH): 99.89 Area %
- HPLC purity 1 week Relative to the initial purity ([3]; 40° C./75% RH): 100.0%
- HPLC purity 1 week Relative to the initial purity ([3]; 40° C./75% RH, listed as fumarate crystal form A): 100%
- HPLC purity 1 week ([3]; 40° C./75% RH): 99.88 Area %
- HPLC purity 1 week Relative to the initial purity ([3]; Light illumination 4500 lux): 100.0%
- HPLC purity 1 week Relative to the initial purity ([3]; Light illumination 4500 lux, listed as fumarate crystal form A): 100%
- HPLC purity 1 week ([3]; Light illumination 4500 lux): 99.89 Area %
- HPLC purity, Initial purity [3]: 99.92 Area %

Compound: CC1=Nc2c(F)cc(-c3nc(Nc4ccc(C5CCN(C)CC5)cn4)ncc3F)cc2C12CCCC2.O=C(O)/C=C/C(=O)O [Fumarate crystal form C, Fumarate of 5-fluoro-4-(7′-fluoro-2′-methylspiro[cyclopentane-1,3′-indol]-5′-yl)-N-(5-(1-methylpiperidin-4-yl)pyridin-2-yl)pyrimidine-2-amine]
- Solubility in FaSSIF [1, 6]: 5900 µg/mL
- Solubility in FeSSIF [1, 7]: 13600 µg/mL
- Solubility in water ([1]; water): 480 µg/mL
- HPLC purity 1 week Relative to the initial purity ([3]; 25° C./60% RH): 100.0%
- HPLC purity 1 week ([3]; 25° C./60% RH): 99.48 Area %
- HPLC purity 1 week Relative to the initial purity ([3]; 40° C./75% RH): 100.0%
- HPLC purity 1 week Relative to the initial purity ([3]; 40° C./75% RH, listed as fumarate crystal form C): 100%
- HPLC purity 1 week ([3]; 40° C./75% RH): 99.48 Area %
- HPLC purity 1 week Relative to the initial purity ([3]; Light illumination 4500 lux): 100.0%
- HPLC purity 1 week Relative to the initial purity ([3]; Light illumination 4500 lux, listed as fumarate crystal form C): 100%
- HPLC purity 1 week ([3]; Light illumination 4500 lux): 99.46 Area %
- HPLC purity, Initial purity [3]: 99.48 Area %

Compound: CC1=Nc2c(F)cc(-c3nc(Nc4ccc(C5CCN(C)CC5)cn4)ncc3F)cc2C12CCCC2.O=C(O)CCC(=O)O [Succinate crystal form A, Succinate of 5-fluoro-4-(7′-fluoro-2′-methylspiro[cyclopentane-1,3′-indol]-5′-yl)-N-(5-(1-methylpiperidin-4-yl)pyridin-2-yl)pyrimidine-2-amine]
- solubility at 24 h [1, 4]: 6400 µg/mL
- solubility at 24 h [1, 5]: 10700 µg/mL
- solubility at 24 h [1, 8]: 7500 µg/mL
- Hygroscopicity (moisture adsorption capacity) [2]: 0.33%
- Whether the crystal form has a change [2]: No change
- Whether the crystal form has a change ([2]; listed as succinate crystal form A): no change
- HPLC purity 1 week Relative to the initial purity ([3]; 25° C./60% RH): 100.0%
- HPLC purity 1 week ([3]; 25° C./60% RH): 99.90 Area %
- HPLC purity 1 week Relative to the initial purity ([3]; 40° C./75% RH): 100.00%
- HPLC purity 1 week Relative to the initial purity ([3]; 40° C./75% RH, listed as succinate crystal form A): 100%
- HPLC purity 1 week ([3]; 40° C./75% RH): 99.90 Area %
- HPLC purity 1 week Relative to the initial purity ([3]; Light illumination 4500 lux): 100.0%
- HPLC purity 1 week Relative to the initial purity ([3]; Light illumination 4500 lux, listed as succinate crystal form A): 100%
- HPLC purity 1 week ([3]; Light illumination 4500 lux): 99.90 Area %
- HPLC purity, Initial purity [3]: 99.94 Area %

Compound: CC1=Nc2c(F)cc(-c3nc(Nc4ccc(C5CCN(C)CC5)cn4)ncc3F)cc2C12CCCC2 [Adipate crystal form A, Adipate of 5-fluoro-4-(7′-fluoro-2′-methylspiro[cyclopentane-1,3′-indol]-5′-yl)-N-(5-(1-methylpiperidin-4-yl)pyridin-2-yl)pyrimidine-2-amine]
- Solubility in FaSSIF [1, 6]: 6800 µg/mL (≈ 13.9 mM)
- Solubility in FeSSIF [1, 7]: 11600 µg/mL (≈ 23.7 mM)
- Solubility in water ([1]; water): 6500 µg/mL (≈ 13.3 mM)
- Hygroscopicity (moisture adsorption capacity) [2]: 0.22%
- Whether the crystal form has a change [2]: No change
- Whether the crystal form has a change ([2]; listed as adipate crystal form A): no change
- HPLC purity 1 week Relative to the initial purity ([3]; 25° C./60% RH): 100.0%
- HPLC purity 1 week ([3]; 25° C./60% RH): 99.88 Area %
- HPLC purity 1 week Relative to the initial purity ([3]; 40° C./75% RH): 100.0%
- HPLC purity 1 week Relative to the initial purity ([3]; 40° C./75% RH, listed as adipate crystal form A): 100%
- HPLC purity 1 week ([3]; 40° C./75% RH): 99.89 Area %
- HPLC purity 1 week Relative to the initial purity ([3]; Light illumination 4500 lux): 100.0%
- HPLC purity 1 week Relative to the initial purity ([3]; Light illumination 4500 lux, listed as adipate crystal form A): 100%
- HPLC purity 1 week ([3]; Light illumination 4500 lux): 99.88 Area %
- HPLC purity, Initial purity [3]: 99.90 Area %

Compound: CC1=Nc2c(F)cc(-c3nc(Nc4ccc(C5CCN(C)CC5)cn4)ncc3F)cc2C12CCCC2.Cl [Hydrochloride crystal form B, Hydrochloride of 5-fluoro-4-(7′-fluoro-2′-methylspiro[cyclopentane-1,3′-indol]-5′-yl)-N-(5-(1-methylpiperidin-4-yl)pyridin-2-yl)pyrimidine-2-amine, reference compound]
- Hygroscopicity (moisture adsorption capacity) [2]: 9.12%
- Whether the crystal form has a change [2]: Change
- Whether the crystal form has a change ([2]; listed as hydrochloride crystal form B): changed to amorphous

Compound: CC1=Nc2c(F)cc(-c3nc(Nc4ccc(C5CCN(C)CC5)cn4)ncc3F)cc2C12CCCC2.O=C(O)/C=C\C(=O)O [Maleate crystal form B, Maleate of 5-fluoro-4-(7′-fluoro-2′-methylspiro[cyclopentane-1,3′-indol]-5′-yl)-N-(5-(1-methylpiperidin-4-yl)pyridin-2-yl)pyrimidine-2-amine]
- solubility at 24 h [1, 4]: 7100 µg/mL
- solubility at 24 h [1, 5]: 7800 µg/mL
- solubility at 24 h [1, 8]: 12900 µg/mL
- Hygroscopicity (moisture adsorption capacity) [2]: 2.00%
- Whether the crystal form has a change [2]: No change
- Whether the crystal form has a change ([2]; listed as maleate crystal form B): no change
- HPLC purity 1 week Relative to the initial purity ([3]; 25° C./60% RH): 100.0%
- HPLC purity 1 week ([3]; 25° C./60% RH): 99.88 Area %
- HPLC purity 1 week Relative to the initial purity ([3]; 40° C./75% RH): 100.0%
- HPLC purity 1 week Relative to the initial purity ([3]; 40° C./75% RH, listed as maleate crystal form B): 100%
- HPLC purity 1 week ([3]; 40° C./75% RH): 99.89 Area %
- HPLC purity 1 week Relative to the initial purity ([3]; Light illumination 4500 lux): 99.9%
- HPLC purity 1 week ([3]; Light illumination 4500 lux): 99.83 Area %
- HPLC purity, Initial purity [3]: 99.91 Area %

Compound: CC1=Nc2c(F)cc(-c3nc(Nc4ccc(C5CCN(C)CC5)cn4)ncc3F)cc2C12CCCC2.CS(=O)(=O)O [Methanesulfonate crystal form A, Methanesulfonate of 5-fluoro-4-(7′-fluoro-2′-methylspiro[cyclopentane-1,3′-indol]-5′-yl)-N-(5-(1-methylpiperidin-4-yl)pyridin-2-yl)pyrimidine-2-amine, reference compound]
- Hygroscopicity (moisture adsorption capacity) [2]: 12.02%
- Whether the crystal form has a change [2]: Change
- Whether the crystal form has a change ([2]; listed as methanesulfonate crystal form A): changed to amorphous
- HPLC purity 1 week Relative to the initial purity ([3]; 25° C./60% RH): 99.9%
- HPLC purity 1 week ([3]; 25° C./60% RH): 99.73 Area %
- HPLC purity 1 week Relative to the initial purity ([3]; 40° C./75% RH): 99.4%
- HPLC purity 1 week ([3]; 40° C./75% RH): 99.16 Area %
- HPLC purity 1 week Relative to the initial purity ([3]; Light illumination 4500 lux): 98.5%
- HPLC purity 1 week ([3]; Light illumination 4500 lux): 98.28 Area %
- HPLC purity, Initial purity [3]: 99.81 Area %
